Data from patent US11464802B2, “3-substituted piperidine compounds for Cbl-b inhibition, and use thereof” (Nurix Therapeutics, Inc., priority 2019, dated 2022).
pIC50: −log10 of the molar value. Read-outs that look alike come from different tables or passages of the source.

Experiments:
[1] = tested on: primary human total T-cells; test: Primary human total T-cell activation: IL-2 secretion, Biological Example 2; format: cell-based; conditions: 48 hours, fold change over baseline; for fold induction at 0.3 µM: inhibitor 0.3 μM; for fold induction at 1 µM: inhibitor 1 μM; for fold induction at 3 µM: inhibitor 3 μM
[2] = tested on: primary human total T-cells; test: Primary human total T-cell activation: CD25 surface staining, Biological Example 2; format: cell-based; conditions: 48 hours, fold change over baseline; for fold induction at 0.3 µM: inhibitor 0.3 μM; for fold induction at 1 µM: inhibitor 1 μM; for fold induction at 3 µM: inhibitor 3 μM
Cbl-b = Cbl-b (Homo sapiens (Human), UniProt Q13191); test: Cbl-b displacement assay (Cbl-b inhibition assay), TR-FRET probe displacement, Biological Example 1; format: binding
Experimental: Candidate compounds were evaluated for their ability to bind and inhibit Cbl-b, an E3 ubiquitin-protein ligase, as evidenced by their ability to displace a fluorophore-labeled probe (Example 46) bound to Cbl-b.
The ability of candidate compounds to displace a known inhibitor and thereby inhibit Cbl-b activity was measured by monitoring the interaction of Cbl-b with a fluorophore-labeled probe in the presence of the candidate compound. A truncated variant of Cbl-b (UniProt number Q13191; SEQ ID NO:1) containing an Avitag at its N-terminus was co-expressed with BirA biotin ligase and purified using a standard protocol (see Dou et al., Nature Structural and Molecular Biology 8: 982-987, 2013; Avidity LLC).
Fluorescently-labeled inhibitor probe was synthesized and tagged with BODIPY FL (Example 46). Cbl-b displacement assays were performed in a 384-well plate at room temperature in a 10 μL reaction volume by pre-incubating 0.5 nM Cbl-b or 0.125 nM Cbl-b (final concentration, indicated as “High” and “Low”, respectively) in an assay buffer containing 20 mM HEPES pH 7.5, 150 mM NaCl, 0.01% Triton X-100, 0.01% BSA, and 0.5 mM TCEP in the presence of a candidate compound in 1% DMSO (final concentration) for 1 hour. After incubation in the presence of the candidate compound, the plate was incubated for an additional 1 hour in the presence of an approximate EC40 binding saturation consisting of 150 nM fluorescently-labeled inhibitor probe and 2 nM Streptavidin-Terbium (Cisbio) (final concentrations). Following the 1 hour incubation, the plates were read for TR-FRET signal at 520/620 nM using an Envision plate reader (Perkin Elmer).

[3] = anti-CD3/anti-CD28 co-stimulation
[4] = anti-CD3/anti-CD28 co-stimulation, read-out: IL-2 secretion CD3/CD28 1 μM
[5] = anti-CD3 alone, read-out: IL-2 secretion CD3 1 μM
[6] = anti-CD3/anti-CD28 co-stimulation, read-out: CD25 staining CD3/CD28 1 μM
[7] = anti-CD3 alone, read-out: CD25 staining CD3 1 μM
[8] = 0.125 nM Cbl-b final concentration (Low), read-out: Cbl-b activity IC50 (Low)
[9] = Cbl-b concentration (High or Low) not given, read-out: IC50 values in the Cbl-b inhibition assay of Biological Example 1
[10] = 0.5 nM Cbl-b final concentration (High), read-out: Cbl-b activity IC50 (High)

Cbl-b, sequence (Q13191 36-427): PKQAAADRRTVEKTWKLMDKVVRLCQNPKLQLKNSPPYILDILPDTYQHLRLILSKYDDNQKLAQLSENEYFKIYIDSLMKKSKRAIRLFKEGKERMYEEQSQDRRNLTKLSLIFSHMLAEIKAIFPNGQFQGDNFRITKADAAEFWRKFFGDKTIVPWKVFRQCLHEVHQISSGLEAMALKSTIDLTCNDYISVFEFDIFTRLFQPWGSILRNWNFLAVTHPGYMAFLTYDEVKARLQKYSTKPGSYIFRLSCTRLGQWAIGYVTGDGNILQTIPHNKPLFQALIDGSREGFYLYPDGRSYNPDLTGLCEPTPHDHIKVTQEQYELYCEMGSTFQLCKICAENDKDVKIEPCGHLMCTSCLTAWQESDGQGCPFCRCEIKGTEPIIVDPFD

pIC50 (Cbl-b; [8]) | pIC50 (Cbl-b; [9]) | pIC50 (Cbl-b; [10]) | SMILES | fold induction at 0.3 µM [1, 3] | fold induction at 1 µM [1, 4] | fold induction at 1 µM [1, 5] | fold induction at 3 µM ([1]; anti-CD3 alone) | fold induction at 0.3 µM [2, 3] | fold induction at 1 µM [2, 6] | fold induction at 1 µM [2, 7] | fold induction at 3 µM ([2]; anti-CD3 alone)
> 9.00 | > 9.00 |  | CCOc1cc(C2(Cc3nncn3C)COC2)cc(N2Cc3c(cc(CN4CCC[C@H](C)C4)nc3C3CC3)C2=O)n1 [Compound 40, 4-cyclopropyl-2-(6-ethoxy-4-{3-[(4-methyl-1,2,4-triazol-3-yl)methyl]oxetan-3-yl}pyridin-2-yl)-6-{[(3S)-3-methylpiperidin-1-yl]methyl}-3H-pyrrolo[3,4-c]pyridin-1-one] | > 15 | > 15 | > 0.66 | > 0.66 | > 1.39 | > 1.39 | > 1.14 | > 1.14
 | > 9.00 | > 9.00 | Cn1cnnc1CC1(c2cccc(N3Cc4c(cc(CN5CCC(F)(F)[C@@H](C#N)C5)cc4C(F)(F)F)C3=O)c2)COC1 [Compound 10, (R)-4,4-difluoro-1-((2-(3-(3-((4-methyl-4H-1,2,4-triazol-3-yl)methyl)oxetan-3-yl)phenyl)-3-oxo-7-(trifluoromethyl)isoindolin-5-yl)methyl)piperidine-3-carbonitrile] | 11 to 15 | 11 to 15 | < 0.33 | < 0.33 | 1.25 to 1.39 | 1.25 to 1.39 | 1.05 to 1.14 | 1.05 to 1.14
 |  | 8.30 to 9.00 | C[C@@H]1CN(Cc2cc3c(c(C(F)(F)F)c2)CN(c2cccc(C4(Cc5nncn5C)COC4)c2)C3=O)C[C@H](C)C1(F)F [Compound 17, 6-(((cis)-4,4-difluoro-3,5-dimethylpiperidin-1-yl)methyl)-2-(3-(3-((4-methyl-4H-1,2,4-triazol-3-yl)methyl)oxetan-3-yl)phenyl)-4-(trifluoromethyl)isoindolin-1-one] | 11 to 15 | > 15 | > 0.66 | > 0.66 | > 1.39 | 1.25 to 1.39 | > 1.14 | > 1.14
8.30 to 9.00 |  |  | CCNc1cc(C2(Cc3nncn3C)COC2)cc(N2Cc3c(cc(CN4CCC[C@H](C)C4)nc3C3CC3)C2=O)n1 [Compound 43, 4-cyclopropyl-2-[6-(ethylamino)-4-{3-[(4-methyl-1,2,4-triazol-3-yl)methyl]oxetan-3-yl}pyridin-2-yl]-6-{[(3S)-3-methylpiperidin-1-yl]methyl}-3H-pyrrolo[3,4-c]pyridin-1-one] | > 15 | > 15 | > 0.66 | > 0.66 | > 1.39 | > 1.39 | > 1.14 | > 1.14
 | 7.00 to 8.29 | 7.00 to 8.29 | CCNc1cc(C2(Cc3nncn3C)COC2)cc(N2Cc3c(cc(CN4CCC(F)(F)[C@H](C)C4)cc3C(F)(F)F)C2=O)n1 [Compound 27, (R)-6-((4,4-difluoro-3-methylpiperidin-1-yl)methyl)-2-(6-(ethylamino)-4-(3-((4-methyl-4H-1,2,4-triazol-3-yl)methyl)oxetan-3-yl)pyridin-2-yl)-4-(trifluoromethyl)iso indolin-1-one] | > 15 | > 15 | > 0.66 | > 0.66 | < 1.24 | < 1.24 | < 1.04 | < 1.04
7.00 to 8.29 | 7.00 to 8.29 |  | C[C@H]1CCCN(Cc2cc3c(c(C(F)(F)F)c2)CN(c2cc(C4(Cc5nncn5C)COC4)cc(Cl)n2)C3=O)C1 [Compound 47, 2-(6-chloro-4-{3-[(4-methyl-1,2,4-triazol-3-yl)methyl]oxetan-3-yl}pyridin-2-yl)-6-{[(3S)-3-methylpiperidin-1-yl]methyl}-4-(trifluoromethyl)-3H-isoindol-1-one] | > 15 | > 15 | > 0.66 | > 0.66 | > 1.39 | > 1.39 | > 1.14 | > 1.14

Second part, the compound before the results:

SMILES | pIC50 (Cbl-b; [8]) | pIC50 (Cbl-b; [9]) | pIC50 (Cbl-b; [10]) | fold induction at 0.3 µM [1, 3] | fold induction at 1 µM [1, 4] | fold induction at 1 µM [1, 5] | fold induction at 3 µM ([1]; anti-CD3 alone) | fold induction at 0.3 µM [2, 3] | fold induction at 1 µM [2, 6] | fold induction at 1 µM [2, 7] | fold induction at 3 µM ([2]; anti-CD3 alone)
CC1CN(Cc2cc3c(c(C(F)(F)F)c2)CN(c2cccc(C4([C@H](F)c5nncn5C)CC4)c2)C3=O)CCC1(F)F (stereo partly drawn) [Compound 25, 6-((4,4-difluoro-3-methylpiperidin-1-yl)methyl)-2-(3-(1-((S)-fluoro(4-methyl-4H-1,2,4-triazol-3-yl)methyl)cyclopropyl)phenyl)-4-(trifluoromethyl)isoindolin-1-one] |  | 8.30 to 9.00 | 8.30 to 9.00 |  |  |  |  |  |  |  | 
Cn1cnnc1CC1(c2cccc(N3Cc4c(cc(CN5CCC(F)(F)[C@]6(CCOC6)C5)cc4C(F)(F)F)C3=O)c2)COC1 [Compound 13, (R)-6-((10,10-difluoro-2-oxa-7-azaspiro[4.5]decan-7-yl)methyl)-2-(3-(3-((4-methyl-4H-1,2,4-triazol-3-yl)methyl)oxetan-3-yl)phenyl)-4-(trifluoromethyl)isoindolin-1-one] |  |  | 8.30 to 9.00 | 11 to 15 | 11 to 15 | 0.34 to 0.66 | 0.34 to 0.66 | < 1.24 | < 1.24 | 1.05 to 1.14 | < 1.04
C[C@@H]1CN(Cc2cc3c(c(C(F)(F)F)c2)CN(c2cccc(C4(Cc5nncn5C(F)F)COC4)c2)C3=O)CCC1(F)F [Compound 31, (R)-6-((4,4-difluoro-3-methylpiperidin-1-yl)methyl)-2-(3-(3-((4-(difluoromethyl)-4H-1,2,4-triazol-3-yl)methyl)oxetan-3-yl)phenyl)-4-(trifluoromethyl)isoindolin-1-one] | 8.30 to 9.00 | 8.30 to 9.00 |  | > 15 | > 15 | > 0.66 | > 0.66 | > 1.39 | > 1.39 | < 1.04 | < 1.04
CC1CN(Cc2cc3c(c(C(F)(F)F)c2)CN(c2cccc(C4([C@@H](F)c5nncn5C)CC4)c2)C3=O)CCC1(F)F (stereo partly drawn) [Compound 26, 6-((4,4-difluoro-3-methylpiperidin-1-yl)methyl)-2-(3-(1-((R)-fluoro(4-methyl-4H-1,2,4-triazol-3-yl)methyl)cyclopropyl)phenyl)-4-(trifluoromethyl)isoindolin-1-one] |  | 8.30 to 9.00 | 8.30 to 9.00 |  |  |  |  |  |  |  | 
CC1CN(Cc2cc3c(c(C(F)(F)F)c2)CN(c2cccc(C4(Cc5nncn5C)CC4)c2)C3=O)CCC1(F)F (stereo not drawn) [Compound 24, 6-((4,4-difluoro-3-methylpiperidin-1-yl)methyl)-2-(3-(1-((4-methyl-4H-1,2,4-triazol-3-yl)methyl)cyclopropyl)phenyl)-4-(trifluoromethyl)isoindolin-1-one] |  | > 9.00 | > 9.00 |  |  |  |  |  |  |  | 
Cn1cnnc1CC1(c2cccc(N3Cc4c(cc(CN5C[C@@H](C(F)(F)F)C[C@H](C(F)(F)F)C5)cc4C(F)(F)F)C3=O)c2)COC1 (relative stereo) [Compound 20, trans-6-{[3,5-bis(trifluoromethyl)piperidin-1-yl]methyl}-2-(3-{3-[(4-methyl-1,2,4-triazol-3-yl)methyl]oxetan-3-yl}phenyl)-4-(trifluoromethyl)-3H-isoindol-1-one] | 8.30 to 9.00 |  |  |  |  |  |  |  |  |  | 
